{"source": "patent US6563025B1", "about": "“Nucleotide sequences encoding anthranilate synthase” (Board of Trustees of the University of Illinois, priority 1996, dated 2003)", "key": {"[1]": {"tested_on": "soybean hairy root lines", "test": "Quantitative root growth test of soybean hairy root lines with 5MT", "assay_type": "cell-based", "details": "solid medium, 8 weeks; compared with A. sinicus", "method": "The soybean (cv. Williams 82) cotyledons from 4 to 6-day-old-seedlings were harvested and wounded with a scalpel previously-dipped into an overnight culture of the A. rhizogenes strain K599. Cotyledons were inoculated by cutting the adaxial face several times to form a checked wound site and the abaxial side was placed on sterile distilled water partially immersed filter paper and incubated as described above. Three days after inoculation, cotyledons were transferred to medium containing Murashige and Skoog basal minerals and B5 organics (Gamborg, O. L., et al. Expt. Cell. Res. 50: 148-151, 1968) solidified with 3 g/1 Gellan gum (Kelko, Division of Merck) (MXB medium) in 100×25 mm petri dishes. To inhibit the growth of bacteria and to select transformed roots, 500 mg/l of carbenicillin disodium and 200 mg/l kanamycin were added to the MXB medium. After hairy roots developed from wounded cotyledons,. single root tips (2-3 cm) were excised and used to establish bacteria-free root clones by subculture to fresh MXB solid medium grown at 28° C. in the dark. […]\nLarge numbers of kanamycin resistant root lines were produced from soybean cotyledons transformed with pBIN-ASA2 and a quantitative root growth test was also performed to assess the extent of 5MT resistance of the transformed hairy root lines. […]"}, "[2]": {"tested_on": "A. sinicus hairy root lines", "test": "Quantitative root growth test of A. sinicus hairy root lines with 5MT", "assay_type": "cell-based", "method": "Hairy roots were weighed to determine fresh weight, and these samples were dried for 12 h at […] before dry weight determination.\nSince expression of the feedback-insensitive ASA2 gene should increase resistance to the Trp analog 5MT as shown previously with E. coli (Song et al., 1998), a quantitative root growth test was used to assess the extent of 5MT resistance of the transformed hairy root lines. Transformed roots were grown for 6 weeks with 0, 10, 15, 20, 25, 30, 40, 50, 75 and 100 μM 5MT in both MS liquid and solid medium, respectively (FIGS. 18A to 18C and FIGS. 19A and 19B)."}, "[3]": {"tested_on": "A. sinicus seedlings", "test": "Direct selection of hairy root lines from A. sinicus seedlings", "assay_type": "cell-based", "method": "Four to seven day old seedlings of A. sinicus with roots removed were then fully immersed in the 1 day cultured bacterial suspension in a petri dish for 10 min, wiped with sterilized filter paper and then placed on partially water immersed filter paper and incubated under 16 h light ([…] m-2 s-1, cool white fluorescent lamps). Three days after co-cultivation, plants were transferred to Murashige and Skoog (Murashige, T., & Skoog, F. Physiol. Plant. 15:473-497, 1962), MS, medium solidified with 3g/l Gellan Gum containing 500 mg/l of carbenicillin disodium and 75 mg/l kanamycin.\nSince the A. sinicus hairy root lines initially selected for kanamycin-resistance but which were also transformed with the feedback-insensitive ASA2 cDNA show resistance to growth inhibition by 5MT (FIG. 18), we wanted to determine if direct selection could be done for A. sinicus hairy root line formation on medium containing 5MT (FIGS. 21A and 21B). Transformation of A. sinicus seedlings with DC-AR2 harboring pBIN-ASA2 gave rise to hairy root line formation on medium containing 0, 15, 20, 25, 30 and 40 μM 5MT but inhibition occurred at 50, 75 and 100 μM."}, "[4]": {"tested_on": "E. coli trpE5972", "test": "Complementation and inhibition tests in trpE mutant E. coli", "assay_type": "cell-based", "details": "no Trp", "method": "The pQES61K was transformed into a trpE nonsense (trpE 5972) mutant E. coli. The trpE nonsense mutant E. coli (trpE 5972) transformed with an expression vector itself (Vector) and the ASA2 cDNA ligated into the expression vector (ASA2) were plated on the M9 minimal medium containing, isopropyl-thiogalactoside (IPTG, 0.1 mM) and ampicillin (100 μg/ml) and either with Trp (+Trp, FIG. 5A) or without Trp (−Trp, FIG. 5B). The complemented strain grew well on M9 medium without Trp and also with 300 μM 5MT (FIG. 5C) which inhibits the growth of the complemented strain carrying feedback-sensitive plant AS (Bohlmann et al., Plant Physiol., 111: 507-514, 1996).\nThe chimeric constructs were transformed into trpE mutant E. coli (trpE5972, nonsense mutant) using CaCl2 transformation (Sambrook et al., 1989, supra). Complemented strains were plated on M9 minimal medium containing ampicillin (100 μg/ml) and isopropylthiogalactoside (IPTG, 0.1 mM), but no Trp. For the inhibition test, 300 μM 5MT was added to the minimal medium described previously. FIGS. 16A and 16B were taken two days after streaking."}, "[5]": {"target": "T1, Arabidopsis ASA1 (Arabidopsis thaliana, UniProt P32068)", "T1 construct": "made in house; host or cells: E. coli JM109", "T1 sequence (P32068 55-595)": "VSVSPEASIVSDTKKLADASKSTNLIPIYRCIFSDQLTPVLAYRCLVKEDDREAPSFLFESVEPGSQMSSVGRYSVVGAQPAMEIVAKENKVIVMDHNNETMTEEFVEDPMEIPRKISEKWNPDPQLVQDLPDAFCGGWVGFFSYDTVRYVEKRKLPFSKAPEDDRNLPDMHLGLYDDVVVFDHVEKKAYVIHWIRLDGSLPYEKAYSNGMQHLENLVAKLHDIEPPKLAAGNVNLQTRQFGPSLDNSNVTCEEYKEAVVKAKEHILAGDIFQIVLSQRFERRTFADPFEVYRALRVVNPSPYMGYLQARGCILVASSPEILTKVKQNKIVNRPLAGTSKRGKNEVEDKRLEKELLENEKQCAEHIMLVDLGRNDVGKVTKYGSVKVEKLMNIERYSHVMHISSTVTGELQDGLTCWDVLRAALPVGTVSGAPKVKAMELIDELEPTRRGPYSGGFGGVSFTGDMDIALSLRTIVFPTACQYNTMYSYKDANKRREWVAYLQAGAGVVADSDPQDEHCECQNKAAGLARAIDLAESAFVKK", "test": "Feedback inhibition assay of Arabidopsis ASA1 expressed in E. coli", "assay_type": "biochemical, A. thaliana", "details": "100 μM and lower concentrations of Trp; crude E. coli cell extract", "method": "The tobacco ASA2 gene was expressed in E. coli strain trpE5972, a mutant line containing a nonsense trpE gene, grown to late log phase on Luria Bertani medium with 100 μM Trp. Expression was induced by addition of 100 μM isopropylthiogalactoside. A protease inhibitor, 135 μM phenylmethylsulfonylfluoride (PMSF), was added with further incubation for three hours at 30° C., 150 rpm. The cells were collected by centrifugation and resuspended in 50 mM Tris, 5 mM MgCl2, 100 mM NH4Cl, 2 mM dithiothreitol, 20% glycerol, pH 8.0 plus 100 μM PMSF and disrupted using a French press (2 passes, 20,000 psi). Cell debris was removed by centrifugation and the supernatant treated with Ni-affinity resin. Bound protein was eluted with […] imidazole in pH 6.3 buffer. The Arabidopsis ASA1 gene was similarly expressed except that the E. coli strain JM109 was used and enzyme activity in a crude cell extract without Ni-affinity purification was characterized.\nEnzyme activity was measured with and without Trp in 50 mM Tris, 5 mM M?gCl2, 1 mM EDTA, 100 mM NH4Cl, 2 mM dithiothreitol, 20% glycerol, pH 7.8 plus 100 μM chorismate. Anthranilate produced in; 30 min at 30° C. was extracted using ethyl acetate and fluorescence measured at excitation 340 and emission 400."}, "[6]": {"target": "anthranilate synthase", "test": "AS activity in extracts of A. sinicus hairy root lines, inhibition by Trp", "assay_type": "biochemical", "details": "control lines; Trp concentration causing 50% inhibition; NH4Cl as second substrate; read-out: apparent Ki for Trp", "method": "Extracts were prepared using a Tenbroeck tissue grinder (Kontes Glass Co., Vineland, N.J.), and the ASA1 extraction buffer (2 ml/g tissue) described by Bernasconi and coworkers (Bernasconi, P., et al., Plant Physiol., 106: 353-358, 1994). After removal of cellular debris by centrifugation (10 min at 35,000 × g and 4° C.), one volume of the supernatant was combined with two volumes of room temperature saturated (NH4)2SO4, and then centrifuged as before. The resulting pellet was resuspended in extraction buffer (1 ml/g tissue) and used immediately. When glutamine was used as the second substrate for the AS catalyzed reaction, the resuspended enzyme solution was desalted using Sephadex G25 to remove residual (NH4)2SO4.\nAS activity was measured as described in Song et al. (1998, supra) except the assay buffer was that described by Bernasconi et al. (1994, supra) without NH4Cl in the buffer. Either 100 mM NH4Cl or 10 mM glutamine was added to the assay mixture to determine α-subunit activity or AS holoenzyme activity, respectively."}, "[7]": {"target": "tobacco ASA2", "details": "ASA2 expressed in E. coli; read-out: apparent Ki for Trp; cited from earlier work"}, "[8]": {"tested_on": "AS", "details": "cited from earlier work; for Ki: read-out: apparent Ki for Trp"}, "[9]": {"tested_on": "tobacco ASA2", "test": "Feedback inhibition assay of tobacco ASA2 expressed in E. coli", "assay_type": "biochemical, N. tabacum", "details": "partially purified ASA2 expressed in E. coli", "procedure": "The tobacco ASA2 gene was expressed in E. coli strain trpE5972, a mutant line containing a nonsense trpE gene, grown to late log phase on Luria Bertani medium with 100 μM Trp. Expression was induced by addition of 100 μM isopropylthiogalactoside. A protease inhibitor, 135 μM phenylmethylsulfonylfluoride (PMSF), was added with further incubation for three hours at 30° C., 150 rpm. The cells were collected by centrifugation and resuspended in 50 mM Tris, 5 mM MgCl2, 100 mM NH4Cl, 2 mM dithiothreitol, 20% glycerol, pH 8.0 plus 100 μM PMSF and disrupted using a French press (2 passes, 20,000 psi). Cell debris was removed by centrifugation and the supernatant treated with Ni-affinity resin. Bound protein was eluted with 100 μM imidazole in pH 6.3 buffer."}, "[10]": {"target": "altered AS (Arabidopsis thaliana, UniProt P32068, D341N)", "sequence (P32068 55-595 D341N)": "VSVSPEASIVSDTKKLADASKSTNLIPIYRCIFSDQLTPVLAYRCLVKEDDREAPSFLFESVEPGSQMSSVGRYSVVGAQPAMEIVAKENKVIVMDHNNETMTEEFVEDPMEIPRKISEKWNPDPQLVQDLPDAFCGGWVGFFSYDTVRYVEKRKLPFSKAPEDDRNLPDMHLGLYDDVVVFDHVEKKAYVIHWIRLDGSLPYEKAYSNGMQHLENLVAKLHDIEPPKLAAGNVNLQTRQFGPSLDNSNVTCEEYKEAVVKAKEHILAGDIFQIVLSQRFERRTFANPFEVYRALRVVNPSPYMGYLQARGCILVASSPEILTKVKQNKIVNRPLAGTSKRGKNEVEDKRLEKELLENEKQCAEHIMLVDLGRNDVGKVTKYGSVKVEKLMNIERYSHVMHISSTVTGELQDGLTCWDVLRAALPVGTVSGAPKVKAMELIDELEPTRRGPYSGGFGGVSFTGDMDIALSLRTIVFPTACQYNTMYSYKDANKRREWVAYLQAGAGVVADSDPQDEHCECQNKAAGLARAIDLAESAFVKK", "details": "100 μM Trp; cited from earlier work"}, "[11]": {"tested_on": "AS", "test": "AS activity in extracts of tobacco suspension cultured cells, inhibition by Trp", "assay_type": "biochemical, N. tabacum", "details": "100 μM Trp; original 5MT-resistant cell lines"}, "[12]": {"details": "control hairy root lines, 6 weeks"}, "[13]": {"details": "seedlings transformed with DC-AR2 harboring pBIN-ASA2"}}, "note": "“And” between values parts separate entries of the source, which are not always exact repeats. Equal values may be shown once. “Also recorded” adds a separate entry of the source. Read-outs that look alike come from different tables or passages of the source."}
{"smiles": "Cc1ccc2[nH]cc(C[C@H](N)C(=O)O)c2c1", "note": "[5MT, 5-methyltryptophan]", "values": [{"measurement": "Sensitivity of hairy root lines to 5MT inhibition", "setting": "[1]", "value": "more sensitive to 5MT inhibition than those of A. sinicus"}, {"measurement": "5MT concentration inhibiting hairy root growth", "setting": "[2]; [12]", "value": "10 to 20", "unit": "µM"}, {"measurement": "5MT concentration of almost complete inhibition", "setting": "[2]; [12]", "value": "≥ 30", "unit": "µM"}, {"measurement": "5MT concentration at which lines turned brown and died", "setting": "[2]; control hairy root lines, liquid medium", "value": "≥ 20", "unit": "µM"}, {"measurement": "5MT concentration at which lines grew", "setting": "[2]; transformed lines A-7, 8, 9, 10 and 20, liquid medium", "value": "up to 100 μM"}, {"measurement": "5MT concentration at which lines are able to grow", "setting": "[2]; transformed lines A-7, 8, 9, 10 and 20, maximum concentration tested", "value": "up to 100 μM"}, {"measurement": "5MT concentration for effective direct selection of 35S-ASA2 transformed roots", "setting": "[3]", "value": "15 to 40", "unit": "µM"}, {"measurement": "5MT concentration at which roots turned brown and died", "setting": "[3]; control roots, DC-AR2, subculture", "value": "≥ 15", "unit": "µM"}, {"measurement": "5MT concentration at which no hairy root lines were formed", "setting": "[3]; control, transformed with DC-AR2", "value": "≥ 25", "unit": "µM"}, {"measurement": "5MT concentration allowing hairy root line formation", "setting": "[3]; [13]", "value": "≤ 40", "unit": "µM"}, {"measurement": "5MT concentration at which inhibition of hairy root formation occurred", "setting": "[3]; [13]", "value": "≥ 50", "unit": "µM"}, {"measurement": "Growth on minimal medium with 5MT", "setting": "[4]; site-directed mutagenized ASA2 alone, 10 μM 5MT", "value": "could not grow"}, {"measurement": "Growth on minimal medium with 5MT", "setting": "[4]; strain transformed with ASA2 cDNA, 300 μM 5MT", "value": "grew well; also recorded: not inhibited"}, {"measurement": "Growth on minimal medium with 5MT", "setting": "[4]; strain transformed with site-directed mutant (Ser107, Gln108), 300 μM 5MT", "value": "did not grow"}]}
{"smiles": "N[C@@H](Cc1c[nH]c2ccccc12)C(=O)O", "note": "[Trp, tryptophan]", "values": [{"measurement": "Inhibition of Arabidopsis ASA1 gene product by Trp", "setting": "[5]", "value": "completely inhibited"}, {"measurement": "Ki", "setting": "[6]", "value": "2000 nM and 3000 nM"}, {"measurement": "Ki", "setting": "[7]", "value": 100, "unit": "µM"}, {"measurement": "AS activity remaining", "setting": "[8]; 900 μM Trp, 5MT-selected tobacco cells overexpressing ASA2, also AB15-12-1", "value": 20, "unit": "%"}, {"measurement": "Ki", "setting": "[8]; extracts of 5MT-resistant tobacco suspension cultured cells", "value": 300, "unit": "µM"}, {"measurement": "Ki", "setting": "[8]; extracts of wild-type tobacco suspension cultured cells", "value": 2, "unit": "µM"}, {"measurement": "AS activity remaining at 100 μM Trp", "setting": "[9]", "value": 50, "unit": "%"}, {"measurement": "AS inhibition by Trp", "setting": "[10]", "value": 95, "unit": "%"}, {"measurement": "enzyme activity of the feedback-insensitive ASA2", "setting": "[11]", "value": 50, "unit": "%"}]}
